For one assay, the system named is Escherichia coli. As to the kind of experiment: microbe, parasite or virus in culture.
A further assay addresses Tumor necrosis factor (Homo sapiens, UniProt P01375). As to the kind of experiment: TNFa-triggered NF-kB activation inhibitors, SAR follow-up, cell-based, revised (AID 2337). The format is functional.
Assay [1] deals with T1, Nucleotide-binding oligomerization domain-containing protein 1 (Homo sapiens, UniProt Q9Y239).
T1 sequence (Q9Y239 whole entry): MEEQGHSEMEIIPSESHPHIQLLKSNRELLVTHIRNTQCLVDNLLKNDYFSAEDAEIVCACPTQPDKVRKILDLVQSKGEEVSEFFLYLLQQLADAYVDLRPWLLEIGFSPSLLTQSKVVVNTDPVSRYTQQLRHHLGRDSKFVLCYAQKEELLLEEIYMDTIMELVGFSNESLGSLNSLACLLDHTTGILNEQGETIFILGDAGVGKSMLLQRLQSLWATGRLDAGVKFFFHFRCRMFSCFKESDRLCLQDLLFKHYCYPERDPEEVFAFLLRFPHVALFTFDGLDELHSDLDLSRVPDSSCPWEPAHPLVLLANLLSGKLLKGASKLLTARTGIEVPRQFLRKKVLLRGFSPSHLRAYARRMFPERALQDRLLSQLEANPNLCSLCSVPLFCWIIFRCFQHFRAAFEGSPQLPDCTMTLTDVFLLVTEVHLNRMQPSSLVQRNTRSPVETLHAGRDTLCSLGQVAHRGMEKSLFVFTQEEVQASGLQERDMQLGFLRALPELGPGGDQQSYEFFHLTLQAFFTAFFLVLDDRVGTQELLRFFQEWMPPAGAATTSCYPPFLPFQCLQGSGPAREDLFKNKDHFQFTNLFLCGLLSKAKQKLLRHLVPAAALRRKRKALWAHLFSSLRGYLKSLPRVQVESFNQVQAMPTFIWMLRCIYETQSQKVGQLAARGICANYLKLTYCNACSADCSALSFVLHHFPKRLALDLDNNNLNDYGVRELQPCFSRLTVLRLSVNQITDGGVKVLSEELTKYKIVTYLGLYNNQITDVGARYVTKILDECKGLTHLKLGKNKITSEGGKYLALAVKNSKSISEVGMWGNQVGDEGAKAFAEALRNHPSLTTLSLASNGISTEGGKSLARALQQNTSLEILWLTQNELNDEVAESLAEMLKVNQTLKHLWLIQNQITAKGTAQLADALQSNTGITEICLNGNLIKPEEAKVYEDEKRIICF
As to the kind of experiment: NOD1 signaling inhibitors, SAR follow-up, revised (AID 2333). The format is functional.

The test system of another assay is HEK293. Put plainly: cells. The conditions noted are these: Homo sapiens.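 Also: cells exposed to compound for 14 hours overnight before viability readout.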
Assay [2] deals with T2, Microphthalmia-associated transcription factor (Homo sapiens, UniProt O75030).
T2 sequence (O75030 whole entry): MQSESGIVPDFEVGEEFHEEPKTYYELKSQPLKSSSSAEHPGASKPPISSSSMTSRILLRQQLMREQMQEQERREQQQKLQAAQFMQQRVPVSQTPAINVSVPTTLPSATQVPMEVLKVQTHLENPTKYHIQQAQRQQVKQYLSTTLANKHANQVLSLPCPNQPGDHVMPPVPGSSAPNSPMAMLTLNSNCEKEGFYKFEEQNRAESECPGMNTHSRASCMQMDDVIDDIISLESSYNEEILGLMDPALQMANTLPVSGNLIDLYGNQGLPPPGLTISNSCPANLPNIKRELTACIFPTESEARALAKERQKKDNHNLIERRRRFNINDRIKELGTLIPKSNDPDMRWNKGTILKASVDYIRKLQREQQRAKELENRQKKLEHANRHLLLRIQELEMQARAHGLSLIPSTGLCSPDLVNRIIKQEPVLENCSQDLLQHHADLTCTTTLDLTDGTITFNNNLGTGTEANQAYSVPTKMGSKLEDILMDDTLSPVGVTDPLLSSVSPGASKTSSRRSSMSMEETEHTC
Put plainly: TRPM1 promoter luciferase signal decrease, dose response, MITF inhibitor project, cell-based, SK-MEL-5, cherry-picked, set 3 (AID 493073).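 Also: SK-MEL-5 melanoma cells with luciferase driven by the MITF target TRPM1 promoter.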 The format is functional.

Assay [3] can be described thus: Luminescence Cell-Based Dose Response HTS to Identify Activators of Luciferase Translation or Activity in H4 […] Cells. [Related pubchem assays: 1829 (Project Summary), 1814 (Primary HTS)]. The format is functional.
The subject of a further assay is H4. Put plainly: Luminescence Cell-Based Dose Response HTS to Identify Activators of 5'UTR Stem-Loop Driven Prion Protein mRNA Translation in H4 Neuroglioblastoma Cells. [Related pubchem assays: 1829 (Project Summary), 1814 (Primary HTS)]. The format is functional. As to conditions: Homo sapiens.
Assay [4] has as its system Vero. As to the kind of experiment: cells. The format is functional, cell-based. The conditions noted are these: Chlorocebus sabaeus.
The next assay addresses T3, Bcl-2-like protein 10 (Homo sapiens, UniProt Q9HD36).
T3 sequence (Q9HD36 whole entry): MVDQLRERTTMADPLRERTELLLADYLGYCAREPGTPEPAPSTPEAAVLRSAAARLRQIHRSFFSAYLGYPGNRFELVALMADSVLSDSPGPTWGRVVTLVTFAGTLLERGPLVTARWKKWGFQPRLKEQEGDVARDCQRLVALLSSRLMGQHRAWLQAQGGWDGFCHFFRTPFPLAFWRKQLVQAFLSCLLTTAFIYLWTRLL
As to the kind of experiment: displacers of TR3 peptide from Bcl-B, primary screen, selectivity assay for Bfl-1 inhibitor project, biochemical, fluorescence polarization, FITC-TR3 peptide (AID 748).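 Also: fluorescence polarization from a fluorescein-labelled TR3 peptide binding purified Bcl-B.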 On the technique in general: Polarisation of emitted light reports the rotation of a fluorescent probe.

A short description of assay [5]: THP-1 cell cytotoxicity, dose response, cytotoxicity control for non-replicating M. tuberculosis project (AID 489025). In kind it is functional.
A short description of assay [6]: Luminescence Cell-Based Dose Retest to Confirm Inhibitors of Cancer Stem Cells. [Related pubchem assays (depositor defined):AID2717, AID2721]. In kind it is functional. As to conditions: Homo sapiens.
Assay [7] is described as follows: HepG2 cell cytotoxicity, dose response, cytotoxicity control for non-replicating M. tuberculosis project (AID 489018). The format is functional. As to conditions: Mycobacterium tuberculosis.
Assay [8] addresses T4, Ubiquitin-conjugating enzyme E2 N (Homo sapiens, UniProt P61088).
T4 sequence (P61088 whole entry): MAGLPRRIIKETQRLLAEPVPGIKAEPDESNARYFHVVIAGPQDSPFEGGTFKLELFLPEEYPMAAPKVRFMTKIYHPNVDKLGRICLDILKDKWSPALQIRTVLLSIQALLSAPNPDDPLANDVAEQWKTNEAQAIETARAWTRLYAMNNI
In kind it is functional.

Assay [9] is described as follows: Vero E6 cell cytotoxicity, dose response, cytotoxicity control for non-replicating M. tuberculosis project, secondary assay (AID 492998). As to conditions: Vero C1008. In kind it is functional, VeroE6.
The nature of a further assay: cells. The format is functional.
The target in another assay is SUMO-activating enzyme (Homo sapiens, UniProt Q9UBT2). As to the kind of experiment: SUMOylation inhibitor hit validation, confirmation, SUMOylation inhibitor project, biochemical, AlphaScreen (AID 2018). In kind it is functional.
SUMO-activating enzyme, sequence (Q9UBE0 whole entry): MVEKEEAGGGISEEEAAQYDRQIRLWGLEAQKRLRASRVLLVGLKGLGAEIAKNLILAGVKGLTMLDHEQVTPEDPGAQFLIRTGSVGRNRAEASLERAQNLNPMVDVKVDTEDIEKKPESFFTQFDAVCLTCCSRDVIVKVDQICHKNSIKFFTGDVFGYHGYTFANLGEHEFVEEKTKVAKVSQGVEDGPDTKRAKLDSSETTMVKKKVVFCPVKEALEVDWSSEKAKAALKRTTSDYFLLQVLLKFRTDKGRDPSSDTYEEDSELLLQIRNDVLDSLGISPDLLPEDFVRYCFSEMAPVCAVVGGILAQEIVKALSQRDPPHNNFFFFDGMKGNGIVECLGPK
SUMO-activating enzyme, sequence (Q9UBT2 whole entry): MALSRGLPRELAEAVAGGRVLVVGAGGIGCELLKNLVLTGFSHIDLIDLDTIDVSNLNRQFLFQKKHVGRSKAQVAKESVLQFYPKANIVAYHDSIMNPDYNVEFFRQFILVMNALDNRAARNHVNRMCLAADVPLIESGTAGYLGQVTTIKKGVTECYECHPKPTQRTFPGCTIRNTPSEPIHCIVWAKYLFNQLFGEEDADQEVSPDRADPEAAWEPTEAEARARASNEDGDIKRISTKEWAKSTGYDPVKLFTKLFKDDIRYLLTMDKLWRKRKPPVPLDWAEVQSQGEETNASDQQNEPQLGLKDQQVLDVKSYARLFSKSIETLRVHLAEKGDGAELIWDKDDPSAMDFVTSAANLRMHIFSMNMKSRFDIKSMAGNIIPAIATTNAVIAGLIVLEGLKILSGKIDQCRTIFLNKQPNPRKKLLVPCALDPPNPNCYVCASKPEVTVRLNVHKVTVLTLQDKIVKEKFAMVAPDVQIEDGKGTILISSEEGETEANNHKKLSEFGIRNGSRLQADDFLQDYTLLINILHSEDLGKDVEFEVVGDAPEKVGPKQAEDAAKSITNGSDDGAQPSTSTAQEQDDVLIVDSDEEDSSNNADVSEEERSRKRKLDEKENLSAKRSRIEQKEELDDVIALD
Assay [10] has as its system Vero. Put plainly: cells. In kind it is functional. The conditions noted are these: Chlorocebus sabaeus.
A further assay concerns the target Large T antigen (Simian virus 40, UniProt P03070). The format is functional, Betapolyomavirus macacae.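 Also: Confirmatory-stage PubChem screen for compounds that inhibit SV40 T antigen.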
Assay [11] addresses DNA dC->dU-editing enzyme APOBEC-3G (Homo sapiens, UniProt Q9HC16). As to the kind of experiment: Dose Response confirmation of small molecule APOBEC3G DNA Deaminase Inhibitors via a fluorescence-based single-stranded DNA deaminase assay. [Related pubchem assays (depositor defined):AID493012, AID493028]. In kind it is functional.
Assay [12] has as its system Streptococcus sp. 'group A'. Put plainly: growth inhibition of control SK(-) GAS strain, dose response, counter-screen for streptokinase expression inhibitor project, luminescence, kanamycin, BacTiterGlo, confirmation (AID 1900). The format is functional, organism-based.
The nature of assay [13]: inhibitors of intracellular T. cruzi replication, confirmation, NIH3T3 host cells, beta-gal luminescence (AID 2044).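 Also: intracellular parasites grown in NIH/3T3 mouse fibroblasts as host cells; luminescent beta-galactosidase reporter signal from transgenic T. cruzi replicating inside host cells; inhibitors lower the luminescence signal.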 The format is functional, cell-based.
Assay [14] addresses T5, Calpain-2 catalytic subunit (Sus scrofa, UniProt P43367).
T5 sequence (P43367 whole entry): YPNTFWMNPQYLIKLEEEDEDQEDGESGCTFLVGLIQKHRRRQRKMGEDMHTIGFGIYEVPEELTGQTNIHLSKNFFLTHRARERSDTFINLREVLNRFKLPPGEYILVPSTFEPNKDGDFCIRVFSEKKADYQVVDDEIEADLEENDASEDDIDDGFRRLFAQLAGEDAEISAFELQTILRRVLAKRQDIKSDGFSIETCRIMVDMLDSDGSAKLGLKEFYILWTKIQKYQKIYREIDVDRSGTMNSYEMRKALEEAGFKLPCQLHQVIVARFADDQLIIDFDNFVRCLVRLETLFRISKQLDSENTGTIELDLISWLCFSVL
As to the kind of experiment: pig calpain II inhibitor potency, dose response, biochemical, fluorogenic peptide substrate (AID 1420). The format is functional.

The nature of assay [15]: cytotoxicity toward NIH3T3 fibroblasts, dose response, counter-screen, cell-based, ATP luminescence, mouse fibroblasts (AID 2010).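 Also: cells exposed to compound for about 90 hours before reading.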 In kind it is functional.
In the next assay the test system is Streptococcus. Put plainly: Group A Streptococcus viability loss, dose response, counter-screen for streptokinase expression inhibitor project, luminescence, BacTiterGlo (AID 1915).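 Also: potency for reduction of bacterial viability or growth.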 The format is functional, organism-based.
Assay [16] is described as follows: HEp-2 cell cytotoxicity, dose response, cytotoxicity control for RSV inhibitor project, HTS (AID 2410). The format is functional. As to conditions: human respiratory syncytial virus.

Calls of active or inactive are those of the source.

Large T antigen, sequence (P03070 whole entry): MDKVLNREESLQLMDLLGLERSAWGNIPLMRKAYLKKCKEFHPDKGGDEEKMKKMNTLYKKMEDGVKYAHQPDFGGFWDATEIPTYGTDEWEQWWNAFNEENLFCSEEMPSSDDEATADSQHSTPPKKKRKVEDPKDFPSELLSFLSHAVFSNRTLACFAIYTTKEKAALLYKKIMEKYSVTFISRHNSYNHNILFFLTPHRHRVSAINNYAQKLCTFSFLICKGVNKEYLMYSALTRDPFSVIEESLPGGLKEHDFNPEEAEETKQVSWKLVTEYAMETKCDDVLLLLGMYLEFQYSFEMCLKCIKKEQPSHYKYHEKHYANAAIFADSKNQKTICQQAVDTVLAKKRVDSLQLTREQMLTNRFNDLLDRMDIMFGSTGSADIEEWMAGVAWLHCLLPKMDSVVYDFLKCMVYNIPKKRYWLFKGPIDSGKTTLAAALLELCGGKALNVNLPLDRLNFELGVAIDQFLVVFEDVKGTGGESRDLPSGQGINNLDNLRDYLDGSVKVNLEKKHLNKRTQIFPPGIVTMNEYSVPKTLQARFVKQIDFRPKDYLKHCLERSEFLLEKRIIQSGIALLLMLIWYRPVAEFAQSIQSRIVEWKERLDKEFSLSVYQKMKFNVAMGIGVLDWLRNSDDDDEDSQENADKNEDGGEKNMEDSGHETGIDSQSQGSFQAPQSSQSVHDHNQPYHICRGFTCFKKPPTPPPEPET
Tumor necrosis factor, sequence (P01375 whole entry, the tested form may be a part): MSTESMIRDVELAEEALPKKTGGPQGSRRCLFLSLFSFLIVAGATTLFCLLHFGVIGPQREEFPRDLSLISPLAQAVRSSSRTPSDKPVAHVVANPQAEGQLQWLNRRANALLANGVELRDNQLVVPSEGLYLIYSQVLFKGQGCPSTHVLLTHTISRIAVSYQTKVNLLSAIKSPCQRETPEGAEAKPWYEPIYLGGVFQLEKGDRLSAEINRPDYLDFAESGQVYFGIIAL
DNA dC->dU-editing enzyme APOBEC-3G, sequence (Q9HC16 whole entry): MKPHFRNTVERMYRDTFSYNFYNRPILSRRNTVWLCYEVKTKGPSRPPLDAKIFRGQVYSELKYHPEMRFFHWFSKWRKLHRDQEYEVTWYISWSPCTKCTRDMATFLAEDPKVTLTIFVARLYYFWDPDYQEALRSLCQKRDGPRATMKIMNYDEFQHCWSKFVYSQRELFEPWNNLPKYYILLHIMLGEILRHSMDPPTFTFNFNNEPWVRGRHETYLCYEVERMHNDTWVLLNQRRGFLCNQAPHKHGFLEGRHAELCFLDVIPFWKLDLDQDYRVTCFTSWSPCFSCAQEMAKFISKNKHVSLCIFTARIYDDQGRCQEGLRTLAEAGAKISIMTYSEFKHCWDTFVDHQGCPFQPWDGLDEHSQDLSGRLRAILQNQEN

Consider `CCCCn1c(N)c(N(CCOC)C(=O)COC(=O)C(C)Oc2ccc(Cl)cc2)c(=O)[nH]c1=O` (configuration not stated), for which the AC50 (in general, the concentration giving half of the maximal activity seen) in the assay with Escherichia coli was 22 µM (active).

As for `COc1ccccc1OC(=O)c1ccc(C)c(S(=O)(=O)N2CCOCC2)c1`, the AC50 in the assay on Escherichia coli was 23.7 µM (active).

Regarding `CCOc1ccc(NC(=O)c2ccc(NC(=O)COC(=O)Cc3ccc(OC)cc3)cc2)cc1`, the AC50 in the assay with Escherichia coli was 21.4 µM (active).

With `CC(C)(C)C(=O)/N=C(\N)Nc1nc2ccccc2o1`, the IC50 (usually the midpoint of a concentration-inhibition curve) at Tumor necrosis factor is 16.5 µM (active); in assay [1] it was > 20 µM (inactive); in the assay with HEK293, > 20 µM (inactive).

Take `CCC[n+]1c(C)sc2c3c(ccc21)CCCC3`: the AC50 in assay [2] was 9.87 µM (active).

In the case of `Cc1cc(C(=O)NC2CCCc3c2cnn3-c2cccc(C)c2C)no1` (configuration not stated), the EC50 (in assay [3]; in the assay with H4) was > 120 µM (not active) in each case. Also, in the assay on Vero [4], the IC50 is 1.53 µM (active).

Take `CCN(Cc1ccccc1)S(=O)(=O)c1c[nH]c(C(=O)OC)c1`: the AC50 in the assay with Escherichia coli is 80.5 µM (active).

As to `O=C1c2ccccc2C(=O)c2c1cccc2N1CCN(CCO)CC1`, the IC50 on Bcl-2-like protein 10 was > 25 µM (inactive).

Turning to `OC(CNCC1CCCO1)Cn1c2ccc(Cl)cc2c2cc(Cl)ccc21` (configuration not stated), the values for the CC50 in assay [5], in [7] and in assay [9] were 9.03 µM (active), 7.5 µM (active) and 11.2 µM (active), respectively. In [6], the AC50 was 3.42 µM (active). Besides, the IC50 in [8] was > 20 µM (inactive); in “cells” it was 8.48 µM (active).

As for `COc1ccc(C(=O)Nc2ccc(-c3nnn(CC(=O)NCc4ccco4)n3)cc2)cc1`, on SUMO-activating enzyme, the IC50 is 43.1 µM (active).

On to `COc1cccc(C(=O)N2N=C(c3ccccn3)CC2(O)C(F)(F)F)c1` (configuration not stated), for which the CC50 (in general, the concentration giving 50% cytotoxicity) was 9.99 µM (active) in assay [5], > 20 µM (active) in assay [7] and 10.1 µM (active) in [9]. Also, the IC50 in the assay “cells” was 8.68 µM (active).

For `CCC(=O)Nc1cccc(NC(C)=O)c1`, on Bcl-2-like protein 10, the IC50 is 56.6 µM (inactive).

For `COc1ccc(C(=O)/C=C/c2cccnc2)c(OC)c1`, the IC50 with Vero [4] is > 25 µM (active). Further, the CC50 in the assay with Vero [10] is 14.9 µM (active).

With `Cc1c(N2C(=O)/C(=C\c3ccccc3O)SC2=S)c(=O)n(-c2ccccc2)n1C`, the IC50 on Large T antigen was 45.2 µM (active); in [11], 46.2 µM (active).

Turning to `Cc1nc(C(=O)NNC(=O)c2ccc(Cl)cc2)c(C(F)(F)F)o1`, the CC50 in [5] was 27.8 µM (active); in [7], > 20 µM (active); in assay [9], > 20 µM (active). The IC50 in the assay “cells” was 44.9 µM (active).

As for `Cc1cc(C(=O)N/N=C/c2ccc([N+](=O)[O-])s2)[nH]n1`, the EC50 (as a rule, the concentration giving half of the maximal effect) is 1.86 µM (active) in assay [12], 612 nM (active) in assay [13], > 60 µM (not active) in [15] and 2.69 µM (active) in the assay on Streptococcus. The IC50 is 6.84 µM (not active) in [14] and 8.88 µM (active) in “cells”. The CC50 in assay [5] was > 40 µM (active); in assay [9], 16.9 µM (active).

`CCCCNC(=O)COC(=O)c1ccc(Cl)c(S(=O)(=O)N2CCCC2)c1`: the IC50 at Bcl-2-like protein 10 is > 100 µM (inactive).

As for `Cc1nc(SC(C)C(=O)NCC2CCCO2)c2cc(-c3ccccc3)sc2n1` (configuration not stated), the IC50 in the assay with Vero [4] was 5.04 µM (active). The CC50 in the assay with Vero [10] is > 25 µM (active).

In the case of `CCN(CC)C(=O)Oc1ccc2ccccc2c1Br`, the CC50 in assay [16] is 44.8 µM (active); with Vero [10], 22.7 µM (active). For the same compound, the IC50 in the assay on Vero [4] is > 25 µM (active).

For `O=C(Nc1ccc2nc3ccccc3nc2c1)c1ccc(Br)cc1`, on SUMO-activating enzyme, the IC50 is 26.7 µM (active).

The values are drawn from ChEMBL document CHEMBL1201862, “PubChem BioAssay data set” (2004).
